# Results taken from PubChem BioAssay AID2060889 (Molecular Pharmacology Branch, DTP, NCI, 2025).
# Tested on: LG0567-F671-PDC complex spheroids viability
# Experiment: Anticancer human tumor LG0567-F671-PDC patient-derived lung adenocarcinoma cell line growth inhibition [RAS]
# Details: for IC50: curve of first compound; for viability, T/C: stronger effect = lower value
# Excerpt: RAS pathway inhibitors in Combinations in Complex Spheroids
# A high-throughput screen of multi-cell type tumor spheroids was designed to identify active combinations of RAS pathway inhibitors and targeted small molecules. Complex spheroids include a stromal component modeled by human endothelial cells (HUVEC) and fibroblasts modeled by human mesenchymal stem cells (MSCs). The concentration ranges selected for each drug and investigational agent were based upon clinically achievable concentrations if the clinical Cmax of the agent was known.
# Compounds. The drugs and investigational agents: abemaciclib (NSC768073), cobimetinib (NSC768068), divarasib (GDC6063, NSC841802), docetaxel (NSC628503), GDC-1971 (RLY-1971, NSC841576), gemcitabine (NSC613327), inavolisib (NSC800729), ipatasertib (NSC767898), KB-0742 (NSC834161), MRTX-1133 (NSC836407), osimertinib (NSC779217), RMC-4630 (NSC839698), RMC-6236 (NSC851965), RMC-6291 (NSC852671), Ro-3306 (NSC812927), sapanisertib (NSC764658), SN-38 (NSC673596), staurosporine (NSC755774), SY5609 (NSC837396), and tovorafenib (DAY101, NSC766906), were obtained from the National Cancer Institute (NCI) Developmental Therapeutics Program Chemical Repository. The FDA-approved anticancer drug set is available from the NCI Developmental Therapeutics Program. […] The stock solutions were prepared in dimethyl sulfoxide (DMSO, Sigma-Aldrich, St. Louis, MO, cat. D2650) at 800-fold the tested concentration and stored at -70 degrees C prior to their use. All drugs and investigational agents were tested over a range starting from a high concentration at or near the clinical Cmax and decreasing in half-log increments. If the clinical Cmax for an agent had not been determined, the highest concentration tested was 10 microM.
# Cell Culture. All cells were maintained in an incubator at 37 degrees C and 5% CO2 with 95% humidity. The PDC lines were cultured according to standard operating procedures established by the NCI PDMR. All PDCs were thawed and cultured in Matrigel-coated flasks prepared with a working solution of 1X Ham's F-12 nutrient mix, without supplementation (Invitrogen, Waltham, MA, cat. 11765054), 100 U/mL penicillin-streptomycin (Invitrogen, cat. 15140122), and 2.5% Matrigel (Corning Inc., Corning, NY, cat. 354248) for the first three passages. The 362531-283-R-J2-PDC and 782815-120-R-J1-PDC lines were cultured in 6C/Colon 1B media, which includes advanced DMEM/F-12 (Thermo Fisher Scientific, cat. 12634028), 10 mM HEPES (Thermo Fisher Scientific, cat. 15630080), 1X GlutaMAX supplement (Thermo Fisher Scientific, cat. 35050061), 0.1 mg/mL primocin (InvivoGen, San Diego, CA, cat. ant-pm-2), 10% defined fetal bovine serum, heat inactivated (HyClone Laboratories Inc., Logan, UT, cat. SH30070.03HI), 50% L-WRN conditioned media (ATCC, cat. CRL-3276), 1.25 mM N-Acetyl-L-cysteine (Sigma-Aldrich, cat. A9165), 10 mM nicotinamide (Sigma-Aldrich, cat. N0636), 1X B-27 supplement (Thermo Fisher Scientific, cat. 17504044), 1X N-2 supplement (Thermo Fisher Scientific, cat. 17502048), 50 ng/mL human EGF (Thermo Fisher Scientific, cat. PHG0311), and 10 microM Y-27632 dihydrochloride (Tocris Bioscience, cat. 1254). The K12877-001-R-J1-PDC line was cultured in 6I media, which includes all 6C/Colon 1B media plus 10 ng/mL human FGF-10 (PeproTech, cat. 100-26), 1 ng/mL human FGF-2 (PeproTech, cat. 100-18B), 1 µM prostaglandin E2 (Tocris Bioscience, cat. 2296), […] hydrocortisone (Sigma-Aldrich, cat. H4001), and […] bovine insulin (Sigma-Aldrich, cat. I6634). The K86415-001-R-J1-PDC line was cultured in 6D media, which includes all 6C/Colon 1B media components minus the L-WRN conditioned media. The 485176-168-R4-J1-PDC was cultured in PANC media, which includes all 6C/Colon 1B media plus 100 ng/mL human FGF-10 (PeproTech, cat. 100-26), 500 nM SB-431542 (Selleckchem, cat. S1067), and 10 nM gastrin (Tocris Bioscience, cat. 3006). […]
# 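Further: spheroids exposed to compound for seven days before readout.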
# 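Wherever IC50 is given: luminescence signal used as a proxy for viable cells.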
smiles,measurement,setting,value
CCN1CCN(Cc2ccc(Nc3ncc(F)c(-c4cc(F)c5nc(C)n(C(C)C)c5c4)n3)nc2)CC1 + C#Cc1c(F)ccc2cc(O)cc(-c3ncc4c(N5CC6CCC(C5)N6)nc(OCC56CCCN5CC(F)C6)nc4c3F)c12,IC50,second compound 0.0316 µM,> 1 µM
same,IC50,second compound 0.1 µM,> 1 µM
same,IC50,second compound 0.316 µM,0.0131 µM
same,IC50,second compound 1 µM,< 0.00316 µM
same,IC50,second compound 3.16 µM,< 0.00316 µM
same,IC50,second compound 10 µM,< 0.00316 µM
same,"viability, T/C","second compound 0.0316 µM, first compound 0.00316 µM",83.8%
same,"viability, T/C","second compound 0.0316 µM, first compound 0.01 µM",77.1%
same,"viability, T/C","second compound 0.0316 µM, first compound 0.0316 µM",72.8%
same,"viability, T/C","second compound 0.0316 µM, first compound 0.1 µM",71.8%
same,"viability, T/C","second compound 0.0316 µM, first compound 0.316 µM",61.1%
same,"viability, T/C","second compound 0.0316 µM, first compound 1 µM",50.3%
same,"viability, T/C","second compound 0.1 µM, first compound 0.00316 µM",75.9%
same,"viability, T/C","second compound 0.1 µM, first compound 0.01 µM",75%
same,"viability, T/C","second compound 0.1 µM, first compound 0.0316 µM",62.2%
same,"viability, T/C","second compound 0.1 µM, first compound 0.1 µM",59.1%
same,"viability, T/C","second compound 0.1 µM, first compound 0.316 µM",57.4%
same,"viability, T/C","second compound 0.1 µM, first compound 1 µM",50.7%
same,"viability, T/C","second compound 0.316 µM, first compound 0.00316 µM",54.4%
same,"viability, T/C","second compound 0.316 µM, first compound 0.01 µM",52.6%
same,"viability, T/C","second compound 0.316 µM, first compound 0.0316 µM",46.8%
same,"viability, T/C","second compound 0.316 µM, first compound 0.1 µM",44.4%
same,"viability, T/C","second compound 0.316 µM, first compound 0.316 µM",36%
same,"viability, T/C","second compound 0.316 µM, first compound 1 µM",39.1%
same,"viability, T/C","second compound 1 µM, first compound 0.00316 µM",37.8%
same,"viability, T/C","second compound 1 µM, first compound 0.01 µM",34.5%
same,"viability, T/C","second compound 1 µM, first compound 0.0316 µM",30.9%
same,"viability, T/C","second compound 1 µM, first compound 0.1 µM",27.1%
same,"viability, T/C","second compound 1 µM, first compound 0.316 µM",28.4%
same,"viability, T/C","second compound 1 µM, first compound 1 µM",27.3%
same,"viability, T/C","second compound 3.16 µM, first compound 0.00316 µM",20.7%
same,"viability, T/C","second compound 3.16 µM, first compound 0.01 µM",18.2%
same,"viability, T/C","second compound 3.16 µM, first compound 0.0316 µM",20%
same,"viability, T/C","second compound 3.16 µM, first compound 0.1 µM",17%
same,"viability, T/C","second compound 3.16 µM, first compound 0.316 µM",19.7%
same,"viability, T/C","second compound 3.16 µM, first compound 1 µM",18.2%
same,"viability, T/C","second compound 10 µM, first compound 0.00316 µM",11.4%
same,"viability, T/C","second compound 10 µM, first compound 0.01 µM",10.8%
same,"viability, T/C","second compound 10 µM, first compound 0.0316 µM",13.1%
same,"viability, T/C","second compound 10 µM, first compound 0.1 µM",10.7%
same,"viability, T/C","second compound 10 µM, first compound 0.316 µM",13.4%
same,"viability, T/C","second compound 10 µM, first compound 1 µM",16.4%
Cc1nc(N2CCC3(CC2)COC(C)C3N)c(CO)nc1Sc1ccnc(N)c1Cl (centres undefined) + CCn1c(-c2cc(N3CCN(C)CC3)cnc2C(C)OC)c2c3cc(ccc31)-c1csc(n1)CC(NC(=O)C1CC1C)C(=O)N1CCCC(N1)C(=O)OCC(C)(C)C2,IC50,second compound 0.000949 µM,< 0.0316 µM
same,IC50,second compound 0.003 µM,< 0.0316 µM
same,IC50,second compound 0.00949 µM,< 0.0316 µM
same,IC50,second compound 0.03 µM,< 0.0316 µM
same,IC50,second compound 0.0949 µM,< 0.0316 µM
same,IC50,second compound 0.3 µM,< 0.0316 µM
same,"viability, T/C","second compound 0.000949 µM, first compound 0.0316 µM",13.4%
same,"viability, T/C","second compound 0.000949 µM, first compound 0.1 µM",9.61%
same,"viability, T/C","second compound 0.000949 µM, first compound 0.316 µM",5.09%
same,"viability, T/C","second compound 0.000949 µM, first compound 1 µM",3.4%
same,"viability, T/C","second compound 0.000949 µM, first compound 3.16 µM",2.1%
same,"viability, T/C","second compound 0.000949 µM, first compound 10 µM",1.79%
same,"viability, T/C","second compound 0.003 µM, first compound 0.0316 µM",6.69%
same,"viability, T/C","second compound 0.003 µM, first compound 0.1 µM",5.75%
same,"viability, T/C","second compound 0.003 µM, first compound 0.316 µM",2.58%
same,"viability, T/C","second compound 0.003 µM, first compound 1 µM",2.04%
same,"viability, T/C","second compound 0.003 µM, first compound 3.16 µM",1.52%
same,"viability, T/C","second compound 0.003 µM, first compound 10 µM",1.27%
same,"viability, T/C","second compound 0.00949 µM, first compound 0.0316 µM",3.68%
same,"viability, T/C","second compound 0.00949 µM, first compound 0.1 µM",3.22%
same,"viability, T/C","second compound 0.00949 µM, first compound 0.316 µM",1.87%
same,"viability, T/C","second compound 0.00949 µM, first compound 1 µM",1.37%
same,"viability, T/C","second compound 0.00949 µM, first compound 3.16 µM",1.14%
same,"viability, T/C","second compound 0.00949 µM, first compound 10 µM",1.07%
same,"viability, T/C","second compound 0.03 µM, first compound 0.0316 µM",2.35%
same,"viability, T/C","second compound 0.03 µM, first compound 0.1 µM",1.85%
same,"viability, T/C","second compound 0.03 µM, first compound 0.316 µM",1.58%
same,"viability, T/C","second compound 0.03 µM, first compound 1 µM",1.41%
same,"viability, T/C","second compound 0.03 µM, first compound 3.16 µM",1.06%
same,"viability, T/C","second compound 0.03 µM, first compound 10 µM",0.91%
same,"viability, T/C","second compound 0.0949 µM, first compound 0.0316 µM",2.09%
same,"viability, T/C","second compound 0.0949 µM, first compound 0.1 µM",1.47%
same,"viability, T/C","second compound 0.0949 µM, first compound 0.316 µM",1.37%
same,"viability, T/C","second compound 0.0949 µM, first compound 1 µM",0.88%
same,"viability, T/C","second compound 0.0949 µM, first compound 3.16 µM",0.94%
same,"viability, T/C","second compound 0.0949 µM, first compound 10 µM",0.69%
same,"viability, T/C","second compound 0.3 µM, first compound 0.0316 µM",1.86%
same,"viability, T/C","second compound 0.3 µM, first compound 0.1 µM",1.2%
same,"viability, T/C","second compound 0.3 µM, first compound 0.316 µM",0.98%
same,"viability, T/C","second compound 0.3 µM, first compound 1 µM",0.98%
same,"viability, T/C","second compound 0.3 µM, first compound 3.16 µM",0.68%
same,"viability, T/C","second compound 0.3 µM, first compound 10 µM",0.66%
